Assay [1] deals with T1, UDP-N-acetylmuramoylalanine--D-glutamate ligase (Staphylococcus aureus, UniProt P0A091).
T1 sequence (P0A091 whole entry): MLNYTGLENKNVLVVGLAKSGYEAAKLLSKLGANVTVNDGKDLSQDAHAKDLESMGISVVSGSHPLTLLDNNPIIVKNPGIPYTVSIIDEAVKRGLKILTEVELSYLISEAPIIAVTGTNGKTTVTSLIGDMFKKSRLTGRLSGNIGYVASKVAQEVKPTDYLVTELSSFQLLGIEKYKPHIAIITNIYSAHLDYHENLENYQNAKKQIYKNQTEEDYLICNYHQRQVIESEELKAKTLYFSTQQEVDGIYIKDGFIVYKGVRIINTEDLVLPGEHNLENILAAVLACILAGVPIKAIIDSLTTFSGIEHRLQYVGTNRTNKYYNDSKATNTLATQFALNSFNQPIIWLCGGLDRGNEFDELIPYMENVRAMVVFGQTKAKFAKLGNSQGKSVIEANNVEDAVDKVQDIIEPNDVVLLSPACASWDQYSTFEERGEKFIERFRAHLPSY
The assay is described as follows: Inhibitory activity against MurD in Staphylococcus aureus.

Assay [2] concerns Enterococcus faecalis. The assay is described as follows: Antibacterial activity against Enterococcus faecalis. Type of assay: functional. The settings on record: GC 4555.
The subject of assay [3] is Streptococcus pneumoniae. Briefly: Antibacterial activity against penicillin resistant Streptococcus pneumoniae. The settings on record: GC 1894. Type of assay: functional.
Assay [4] deals with UDP-N-acetylglucosamine 1-carboxyvinyltransferase (Escherichia coli K-12, UniProt P0A749). Briefly: Inhibitory activity against MurA in Escherichia coli.
Sequence of UDP-N-acetylglucosamine 1-carboxyvinyltransferase (P0A749 whole entry): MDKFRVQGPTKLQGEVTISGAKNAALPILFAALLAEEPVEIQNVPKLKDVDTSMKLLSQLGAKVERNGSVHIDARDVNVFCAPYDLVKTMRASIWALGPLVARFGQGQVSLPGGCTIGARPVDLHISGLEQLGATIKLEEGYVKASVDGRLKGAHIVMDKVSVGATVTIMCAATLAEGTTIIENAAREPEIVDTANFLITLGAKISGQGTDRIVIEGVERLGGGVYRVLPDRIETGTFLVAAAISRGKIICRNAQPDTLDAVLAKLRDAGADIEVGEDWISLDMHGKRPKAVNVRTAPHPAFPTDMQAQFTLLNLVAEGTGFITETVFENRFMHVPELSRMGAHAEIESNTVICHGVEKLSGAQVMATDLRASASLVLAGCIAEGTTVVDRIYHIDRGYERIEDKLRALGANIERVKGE
The target of assay [5] is T2, UDP-N-acetylenolpyruvoylglucosamine reductase (Escherichia coli K-12, UniProt P08373).
T2 sequence (P08373 whole entry): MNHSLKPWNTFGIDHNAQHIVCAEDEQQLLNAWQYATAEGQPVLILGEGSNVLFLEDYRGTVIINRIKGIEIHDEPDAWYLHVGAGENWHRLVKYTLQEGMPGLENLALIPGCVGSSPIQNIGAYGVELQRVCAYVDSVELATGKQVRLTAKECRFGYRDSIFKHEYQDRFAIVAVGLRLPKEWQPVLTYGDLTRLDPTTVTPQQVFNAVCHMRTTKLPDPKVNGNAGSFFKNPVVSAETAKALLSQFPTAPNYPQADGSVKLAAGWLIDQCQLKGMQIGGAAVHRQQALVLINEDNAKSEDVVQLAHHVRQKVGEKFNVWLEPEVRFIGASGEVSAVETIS
The assay is described as follows: Inhibitory activity against MurB in Escherichia coli.

Assay [6] concerns the target T3, UDP-N-acetylmuramate--L-alanine ligase (Staphylococcus aureus, UniProt O31211).
T3 sequence (O31211 whole entry): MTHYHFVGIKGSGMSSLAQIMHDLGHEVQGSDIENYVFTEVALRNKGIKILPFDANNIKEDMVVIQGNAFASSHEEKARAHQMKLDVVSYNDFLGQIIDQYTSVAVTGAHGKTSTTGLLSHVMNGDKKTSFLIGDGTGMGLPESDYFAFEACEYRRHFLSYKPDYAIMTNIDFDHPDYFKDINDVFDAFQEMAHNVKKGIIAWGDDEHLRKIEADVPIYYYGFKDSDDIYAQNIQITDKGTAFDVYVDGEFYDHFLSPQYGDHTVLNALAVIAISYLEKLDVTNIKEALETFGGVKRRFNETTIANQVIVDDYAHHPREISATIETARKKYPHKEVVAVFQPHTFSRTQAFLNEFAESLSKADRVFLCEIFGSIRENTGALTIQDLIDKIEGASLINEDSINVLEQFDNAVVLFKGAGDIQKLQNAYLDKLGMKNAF
Briefly: Inhibitory activity against MurC in Staphylococcus aureus.

Assay [7] has as its system Enterococcus faecalis. The assay is described as follows: Antibacterial activity against vancomycin resistant Enterococcus faecalis. Type of assay: functional. The settings on record: GC 2242.
Assay [8] has as its system Staphylococcus aureus. The assay is described as follows: Antibacterial activity against Staphylococcus aureus. It counts as functional. The settings on record: GC 4543.
In assay [9] the test system is Staphylococcus aureus. Briefly: Antibacterial activity against methicillin resistant Staphylococcus aureus. It counts as functional. The settings on record: GC 1131.
Assay [10] has as its target T4, UDP-N-acetylglucosamine 1-carboxyvinyltransferase 1 (Staphylococcus aureus subsp. aureus N315, UniProt P84058).
T4 sequence (P84058 whole entry): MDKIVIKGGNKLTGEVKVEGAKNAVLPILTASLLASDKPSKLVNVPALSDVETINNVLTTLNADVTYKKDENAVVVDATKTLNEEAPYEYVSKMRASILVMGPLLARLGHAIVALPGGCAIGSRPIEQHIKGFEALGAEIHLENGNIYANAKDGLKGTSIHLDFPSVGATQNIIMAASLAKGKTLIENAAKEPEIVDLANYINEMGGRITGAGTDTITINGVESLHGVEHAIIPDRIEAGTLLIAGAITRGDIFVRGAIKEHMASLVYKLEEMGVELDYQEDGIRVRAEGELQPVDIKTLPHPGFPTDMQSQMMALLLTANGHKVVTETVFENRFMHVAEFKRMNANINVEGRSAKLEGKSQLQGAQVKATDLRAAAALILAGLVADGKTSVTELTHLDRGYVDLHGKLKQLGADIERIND
The assay is described as follows: Inhibitory activity against MurA in Staphylococcus aureus.

Converted amounts (≈) assume the structure as drawn. Bounds are passed on as bounds.

By IC50 is commonly meant the concentration that gives 50% inhibition. In general, MIC refers to the lowest concentration found to suppress growth. Take `Cc1ccccc1-c1ccc(/C=C2\OC(O)=C(c3cc(Cl)cc(Cl)c3)C2=O)cc1C`: the IC50 in assay [1] was 20.6 µM; in assay [4] it was 4.57 µM; in assay [5], 2.29 µM; in assay [6] it was 52.6 µM. The MIC in assay [2] was 2 µg/mL (≈ 4.57 µM); in assay [3], no more than 0.12 µg/mL; in assay [7], 0.5 µg/mL (≈ 1.14 µM); in [8], 0.5 µg/mL (≈ 1.14 µM); in [9] it was 0.5 µg/mL (≈ 1.14 µM).
`O=C1O/C(=C\c2cc(C(F)(F)F)ccc2Cl)C(O)=C1c1ccc(N2CCOCC2)c(F)c1`: the IC50 in [1] is greater than 53.2 µM; in assay [4] it was greater than 53.2 µM; in [5], 21.3 µM; in assay [6], greater than 53.2 µM. The MIC was determined as 128 µg/mL (≈ 272 µM) in [2]; 16 µg/mL (≈ 34.1 µM) in assay [3]; 128 µg/mL (≈ 272 µM) in [7]; 128 µg/mL (≈ 272 µM) in [8]; 64 µg/mL (≈ 136 µM) in [9].
As to `Cc1cc(/C=C2\OC(O)=C(c3cccc(Cl)c3)C2=O)ccc1-c1ccccc1C(F)(F)F`, the IC50 in assay [1] was 26.3 µM; in assay [4], 8.76 µM; in assay [5] it was 6.57 µM; in assay [6] it was 32.8 µM. For the same compound, the MIC in assay [2] was 4 µg/mL (≈ 8.76 µM); in [3] it was no more than 0.12 µg/mL; in assay [7] it was 2 µg/mL (≈ 4.38 µM); in assay [8], 1 µg/mL (≈ 2.19 µM); in [9] it was 2 µg/mL (≈ 4.38 µM).
Regarding `Cc1cc(/C=C2\OC(O)=C(c3cc(Cl)cc(Cl)c3)C2=O)ccc1-c1ccccc1C(F)(F)F`, the IC50 in assay [1] is 48.9 µM; in assay [5], 6.11 µM; in assay [6] it was greater than 50.9 µM; in [10], 4.07 µM. Besides, the MIC was found to be 2 µg/mL (≈ 4.07 µM) in assay [2]; 0.5 µg/mL (≈ 1.02 µM) in assay [3]; 1 µg/mL (≈ 2.04 µM) in [7]; 0.5 µg/mL (≈ 1.02 µM) in assay [8]; 0.5 µg/mL (≈ 1.02 µM) in [9].
`COc1cc(/C=C2\OC(O)=C(c3cc(Cl)cc(Cl)c3)C2=O)ccc1-c1ccccc1C(F)(F)F`: the IC50 in assay [1] was 33.5 µM; in assay [4], 7.89 µM; in [5], 3.94 µM; in [6] it was 39.4 µM. The MIC in assay [2] stood at 2 µg/mL (≈ 3.94 µM); in assay [3], 0.5 µg/mL (≈ 0.986 µM); in assay [7] it was 1 µg/mL (≈ 1.97 µM); in [8] it was 0.5 µg/mL (≈ 0.986 µM); in [9], 0.5 µg/mL (≈ 0.986 µM).
On to `O=C1O/C(=C\c2ccccc2-c2ccc(Cl)c(Cl)c2)C(O)=C1c1ccc(Cl)c(Cl)c1`, for which the IC50 in [1] was 10.5 µM; in assay [4], 6.27 µM; in assay [6], 37.6 µM. Also, the MIC was 1 µg/mL (≈ 2.09 µM) in assay [2]; no more than 0.12 µg/mL in assay [3]; 0.5 µg/mL (≈ 1.05 µM) in assay [7]; 0.25 µg/mL (≈ 0.523 µM) in assay [8]; 0.5 µg/mL (≈ 1.05 µM) in assay [9].

Source of the values: ChEMBL document CHEMBL1148552, “Pulvinones as bacterial cell wall biosynthesis inhibitors” (Bioorg Med Chem Lett, 2006).
